Like-named read-outs stand apart in the source and are kept apart here.
Biological target: T1, BTK enzyme (recombinant full-length BTK, hBTK) (Homo sapiens, UniProt Q06187)
T1 construct: recombinant protein from baculovirus-transfected Sf9 cells: full-length BTK, 6HIS-tag cleaved; 6HIS (cleaved yes); made in house; host or cells: baculovirus-transfected Sf9 cells
Assay: Btk enzyme activity assay, LANCE TR-FRET
Assay type: biochemical
Conditions: 50 pM hBTK, 2 μM biotin-A5-peptide, 25 μM ATP, 60 minute compound & enzyme incubation, 120 minutes reaction
Procedure: Btk Enzyme Activity Assay Methods
BTK enzymatic activity was determined with the LANCE (Lanthanide Chelate Excite) TR-FRET (lime-resolved fluorescence resonance energy transfer) assay. […] Phosphorylation reactions were allowed to proceed for 120 minutes. […] After 60 minutes incubation with detection reagents, reaction plates were read on a PerkinElmer EnVision plate reader using standard TR-FRET protocol. Briefly, excitation of donor molecules (Eu-chelate:anti-phospho-antibody) with a laser light source at 337 nm produces energy that can be transferred to Dylight-650 acceptor molecules if this donor:acceptor pair is within close proximity. Fluorescence intensity at both 665 nm (acceptor) and 615 nm (donor) are measured and a TR-FRET ratio calculated for each well (acceptor intensity/donor intensity). IC50 values were determined by 4 parameter robust fit of TR-FRET ratio values vs. (Log10) compound concentrations.

[1] = read-out: BTK binding potency IC50

T1 sequence (Q06187 whole entry): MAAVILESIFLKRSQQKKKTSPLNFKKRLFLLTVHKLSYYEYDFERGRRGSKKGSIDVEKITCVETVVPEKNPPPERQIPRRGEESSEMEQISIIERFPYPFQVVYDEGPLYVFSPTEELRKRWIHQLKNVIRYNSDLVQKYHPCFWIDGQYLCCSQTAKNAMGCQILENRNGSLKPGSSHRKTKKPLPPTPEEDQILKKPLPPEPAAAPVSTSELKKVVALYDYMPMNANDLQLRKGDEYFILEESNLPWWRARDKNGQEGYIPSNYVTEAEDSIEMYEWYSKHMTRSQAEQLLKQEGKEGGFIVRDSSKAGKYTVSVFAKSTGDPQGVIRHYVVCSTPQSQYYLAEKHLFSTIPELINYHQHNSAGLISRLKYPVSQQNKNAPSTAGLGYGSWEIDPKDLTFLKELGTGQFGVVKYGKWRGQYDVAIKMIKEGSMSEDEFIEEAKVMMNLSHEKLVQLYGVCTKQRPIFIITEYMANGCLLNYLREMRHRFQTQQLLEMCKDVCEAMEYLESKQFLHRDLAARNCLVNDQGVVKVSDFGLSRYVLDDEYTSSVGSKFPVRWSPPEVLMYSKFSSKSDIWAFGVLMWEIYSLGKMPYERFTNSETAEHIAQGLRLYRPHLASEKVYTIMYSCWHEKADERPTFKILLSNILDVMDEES

Row | Structure (SMILES) | IC50 [1] [nM] | IC50 (BTK binding potency IC50 (nM)) [nM]
1 | NC(=O)c1cnc(N2CCC[C@]3(C2)C(=O)NC[C@H]3O)c2c1[nH]c1ccccc12 (stereo in doubt) [Example 17, 1-[(4S,5R)-4-hydroxy-1-oxo-2,7-diazaspiro[4.5]dec-7-yl]-5H-pyrido[4,3-b]indole-4-carboxamide] | 538 | 
2 | NC(=O)c1cnc(N2CCC[C@@]3(CCCN(c4ccc(F)cc4)C3=O)C2)c2c1[nH]c1ccccc12 [Example 1, (R)-1-(8-(4-fluorophenyl)-7-oxo-2,8-diazaspiro[5.5]undecan-2-yl)-5H-pyrido[4,3-b]indole-4-carboxamide] | 149 | 
3 | NC(=O)c1cnc(N2CCC[C@]3(CCCN(c4ccc(F)cc4)C3=O)C2)c2c1[nH]c1ccccc12 [Example 2, (S)-1-(8-(4-fluorophenyl)-7-oxo-2,8-diazaspiro[5.5]undecan-2-yl)-5H-pyrido[4,3-b]indole-4-carboxamide] | 12.9 | 
4 | NC(=O)c1cnc(N2CCCC3(C2)OCCN(c2ccc(F)cc2)C3=O)c2c1[nH]c1ccccc12 (stereo not drawn) [Example 3, 1-(4-(4-fluorophenyl)-5-oxo-1-oxa-4,8-diazaspiro[5.5]undecan-8-yl)-5H-pyrido[4,3-b]indole-4-carboxamide] | 109 | 
5 | NC(=O)c1cnc(N2CCCC3(CCCN(c4ccc(F)cc4)C3=O)C2)c2c1[nH]c1ccccc12 (stereo not drawn) [Example 4, 1-[8-(4-fluorophenyl)-7-oxo-2,8-diazaspiro[5.5]undec-2-yl]-5H-pyrido[4,3-b]indole-4-carboxamide] | 17 | 
6 | CC(C)c1ccc(N2CCCC3(CCCN(c4ncc(C(N)=O)c5[nH]c6ccccc6c45)C3)C2=O)cc1 (stereo not drawn) [Example 5, 1-{8-[4-(1-methylethyl)phenyl]-7-oxo-2,8-diazaspiro[5.5]undec-2-yl}-5H-pyrido[4,3-b]indole-4-carboxamide] | 492 | 
7 | NC(=O)c1cnc(N2CCC[C@@]3(CCCN(c4ccc(F)cc4)C3=O)C2)c2c1[nH]c1ccc(F)cc12 [Example 6, 8-fluoro-1-[(6R)-8-(4-fluorophenyl)-7-oxo-2,8-diazaspiro[5.5]undec-2-yl]-5H-pyrido[4,3-b]indole-4-carboxamide] | 853 | 
8 | NC(=O)c1cnc(N2CCC[C@]3(CCCN(c4ccc(F)cc4)C3=O)C2)c2c1[nH]c1ccc(F)cc12 [Example 7, 8-fluoro-1-[(6S)-8-(4-fluorophenyl)-7-oxo-2,8-diazaspiro[5.5]undec-2-yl]-5H-pyrido[4,3-b]indole-4-carboxamide] | 34.2 | 
9 | NC(=O)c1cnc(N2CCC[C@@]3(CCCN(c4ccc(F)cc4)C3=O)C2)c2c1[nH]c1ccc(C(=O)O)cc12 [Example 8, 4-carbamoyl-1-[(6R)-8-(4-fluorophenyl)-7-oxo-2,8-diazaspiro[5.5]undec-2-yl]-5H-pyrido[4,3-b]indole-8-carboxylic acid] | 12.6 | 
10 | O=C(NO)c1cnc(N2CCCC3(CCNC3=O)C2)c2c1[nH]c1ccccc12 (stereo not drawn) [Example 9, N-hydroxy-1-(1-oxo-2,7-diazaspiro[4.5]dec-7-yl)-5H-pyrido[4,3-b]indole-4-carboxamide] | 384 | 
11 | NC(=O)c1cnc(N2CCC3(CC2)CNC(=O)C3)c2c1[nH]c1ccccc12 [Example 10, 1-(3-oxo-2,8-diazaspiro[4.5]dec-8-yl)-5H-pyrido[4,3-b]indole-4-carboxamide] | 19.4 | 
12 | NC(=O)c1cnc(N2CCC3(CCNC3=O)CC2)c2c1[nH]c1ccccc12 [Example 11, 1-(1-oxo-2,8-diazaspiro[4.5]dec-8-yl)-5H-pyrido[4,3-b]indole-4-carboxamide] | 31.1 | 
13 | NC(=O)c1cnc(N2CCC3(CCNC3)CC2)c2c1[nH]c1ccccc12 [Example 12, 1-(2,8-diazaspiro[4.5]dec-8-yl)-5H-pyrido[4,3-b]indole-4-carboxamide] | 35 | 
14 | CC(C)(C)OC(=O)N1CCC2(CCN(c3ncc(C(N)=O)c4[nH]c5ccccc5c34)CC2)C1 [Example 13, tert-butyl 8-(4-carbamoyl-5H-pyrido[4,3-b]indol-1-yl)-2,8-diazaspiro[4.5]decane-2-carboxylate] | 163 | 
15 | CC(=O)N1CCC2(CCN(c3ncc(C(N)=O)c4[nH]c5ccccc5c34)CC2)C1 [Example 14, 1-(2-acetyl-2,8-diazaspiro[4.5]dec-8-yl)-5H-pyrido[4,3-b]indole-4-carboxamide] | 26 | 
16 | NC(=O)c1cnc(N2CCC3(CCNCC3)C2)c2c1[nH]c1ccccc12 [Example 15, 1-(2,8-diazaspiro[4.5]dec-2-yl)-5H-pyrido[4,3-b]indole-4-carboxamide] | 37.4 | 
17 | CC(C)(C)OC(=O)N1CC2(CCN(c3ncc(C(N)=O)c4[nH]c5ccccc5c34)CC2)C1 [Example 16, tert-butyl 7-(4-carbamoyl-5H-pyrido[4,3-b]indol-1-yl)-2,7-diazaspiro[3.5]nonane-2-carboxylate] | 98.7 | 

Other lines, results leading:

Row | IC50 [1] [nM] | IC50 (BTK binding potency IC50 (nM)) [nM] | Structure (SMILES)
18 | 170 |  | NC(=O)c1cnc(N2CCCC3(C2)C(=O)NCC3O)c2c1[nH]c1ccccc12 (mixture of isomers) [Example 86, 1-(4-hydroxy-1-oxo-2,7-diazaspiro[4.5]decan-7-yl)-5H-pyrido[4,3-b]indole-4-carboxamide]
19 | 64 |  | CN1C[C@@H](CO)[C@@]2(CCCN(c3ncc(C(N)=O)c4[nH]c5ccccc5c34)C2)C1=O (racemic) [Example 92, trans-1-(4-(hydroxymethyl)-2-methyl-1-oxo-2,7-diazaspiro[4.5]decan-7-yl)-5H-pyrido[4,3-b]indole-4-carboxamide]
20 | 77.8 |  | NC(=O)c1cnc(N2CCC[C@@]3(C2)C(=O)NC[C@@H]3c2ccccc2)c2c1[nH]c1ccccc12 (single isomer, unassigned) [Example 88, 1-[(trans)-1-oxo-4-phenyl-2,7-diazaspiro[4.5]dec-7-yl]-5H-pyrido[4,3-b]indole-4-carboxamide]
21 | 669 |  | NC(=O)c1cnc(N2CCC[C@]3(C2)C(=O)NC[C@@H]3c2ccccc2)c2c1[nH]c1ccccc12 (single isomer, unassigned) [Example 89, 1-[(trans)-1-oxo-4-phenyl-2,7-diazaspiro[4.5]dec-7-yl]-5H-pyrido[4,3-b]indole-4-carboxamide]
22 | 115 |  | CN1CC(CO)C2(CCCN(c3ncc(C(N)=O)c4[nH]c5ccccc5c34)C2)C1=O (single isomer, unassigned) [Example 90, cis-1-(4-(hydroxymethyl)-2-methyl-1-oxo-2,7-diazaspiro[4.5]decan-7-yl)-5H-pyrido[4,3-b]indole-4-carboxamide]
23 | 1000 |  | CN1CC(CO)C2(CCCN(c3ncc(C(N)=O)c4[nH]c5ccccc5c34)C2)C1=O (single isomer, unassigned) [Example 91, cis-1-(4-(hydroxymethyl)-2-methyl-1-oxo-2,7-diazaspiro[4.5]decan-7-yl)-5H-pyrido[4,3-b]indole-4-carboxamide]
24 |  | 121 | NC(=O)c1cnc(N2CCCC3(CCNC3=O)C2)c2c1[nH]c1ccccc12 (stereo in doubt) [Example 40, 1-[(5R)-1-oxo-2,7-diazaspiro[4.5]dec-7-yl]-5H-pyrido[4,3-b]indole-4-carboxamide]
25 |  | 10.7 | NC(=O)c1cnc(N2CCCC3(CCNC3=O)C2)c2c1[nH]c1ccccc12 (stereo in doubt) [Example 41, 1-[(5S)-1-oxo-2,7-diazaspiro[4.5]dec-7-yl]-5H-pyrido[4,3-b]indole-4-carboxamide]
26 | 6.3 |  | NC(=O)c1cnc(N2CCCC3(CCNC3=O)C2)c2c1[nH]c1cc(C3CCNCC3)ccc12 (stereo in doubt) [Example 63, 1-[(5S)-1-oxo-2,7-diazaspiro[4.5]dec-7-yl]-7-piperidin-4-yl-5H-pyrido[4,3-b]indole-4-carboxamide]
27 | 0.63 |  | NC(=O)c1cnc(N2CCCC3(CCNC3=O)C2)c2c1[nH]c1cc(C3CCNCC3)ccc12 (stereo in doubt) [Example 64, 1-[(5R)-1-oxo-2,7-diazaspiro[4.5]dec-7-yl]-7-piperidin-4-yl-5H-pyrido[4,3-b]indole-4-carboxamide]
28 | 117 |  | NC(=O)c1cnc(N2CCC[C@@]3(C2)C(=O)NC[C@@H]3O)c2c1[nH]c1ccccc12 [Example 18, 1-[(4R,5S)-4-hydroxy-1-oxo-2,7-diazaspiro[4.5]dec-7-yl]-5H-pyrido[4,3-b]indole-4-carboxamide]
29 | 22 |  | NC(=O)c1cnc(N2CCC3(CC2)CNC3)c2c1[nH]c1ccccc12 [Example 19, 1-(2,7-diazaspiro[3.5]non-7-yl)-5H-pyrido[4,3-b]indole-4-carboxamide]
30 | 58.6 |  | CC(=O)N1CC2(CCN(c3ncc(C(N)=O)c4[nH]c5ccccc5c34)CC2)C1 [Example 20, 1-(2-acetyl-2,7-diazaspiro[3.5]non-7-yl)-5H-pyrido[4,3-b]indole-4-carboxamide]
31 | 435 |  | CC(C)(C)OC(=O)N1CCC2(C1)CN(c1ncc(C(N)=O)c3[nH]c4ccccc4c13)C2 [Example 21, tert-butyl 2-(4-carbamoyl-5H-pyrido[4,3-b]indol-1-yl)-2,6-diazaspiro[3.4]octane-6-carboxylate]
32 | 9 |  | NC(=O)c1cnc(N2CCC[C@]3(C2)C(=O)NC[C@@H]3O)c2c1[nH]c1ccccc12 [Example 24, 1-[(4R,5R)-4-hydroxy-1-oxo-2,7-diazaspiro[4.5]dec-7-yl]-5H-pyrido[4,3-b]indole-4-carboxamide]
33 | 536 |  | CC(C)(C)c1ccc(C(=O)N2CCCC3(CCCCN3c3ncc(C(N)=O)c4[nH]c5ccccc5c34)C2)cc1 (stereo not drawn) [Example 25, 1-{8-[(4-tert-butylphenyl)carbonyl]-1,8-diazaspiro[5.5]undec-1-yl}-5H-pyrido[4,3-b]indole-4-carboxamide]

Source: US20180141962A1, “AZACARBAZOLE BTK INHIBITORS” (MERCK SHARP & DOHME CORP., priority 2015, published 2018)
